# Data as given in the SangsterLogP compilation.
# How the values were obtained:
# [1] = not given; remark: listed apart in the source
# [2] = not given; remark: listed apart in the source
# [3] = not given; remark: listed apart in the source
# [4] = method code SF-AS, from DOI: 10.1023/a:1016392123137, PMID: 24272811; settings: pH 9.0
# [5] = method code SF-AS, from DOI: 10.1248/cpb.39.458, PMID: 1829027; settings: pH 7.0
# [6] = method code SF, from DOI: 10.1021/jm061062o.s001, PMID: 17326614; settings: pH 7.4
# [7] = method code G-GLC, from DOI: 10.1021/je00036a027
# [8] = method code SF-HPLC, from DOI: 10.1002/ps.2780310207
# [9] = from Sparatore, F.; Grieco, C.; Silipo, C.; Vittoria, A. (1979). Use of regression analysis to correlate auxin activity with chemical physical and structural properties of benzotriazole derivatives. III. …; settings: pH 5.6
# [10] = not given; remark: listed apart in the source
# [11] = not given; remark: listed apart in the source
# [12] = not given; remark: listed apart in the source
# [13] = method code SF-GLC, from DOI: 10.1016/s0021-9673(01)83612-8; settings: pH 13.0
smiles,measurement,setting,value
CCCCNCc1ccc(C)cc1,logP,,3.49
COc1ccc(C(=O)NNC(=O)c2ccccc2)cc1,logP,[1],1.6
S=c1ssc(Cc2ccccc2)c1-c1ccccc1,logP,[2],4.29
CCc1c(-c2ccccc2)ssc1=S,logP,[2],4.31
O=S(=O)(Nc1cc(Cl)c(Cl)cc1Cl)c1c(O)c(Cl)cc(Cl)c1Cl,logP,[3],4.36
c1ccc(-c2cc3ccccc3cn2)nc1,logD,[4],3.05
CCNCc1ccc(C)cc1,logP,,2.38
CCCCCCCC(=O)OCC1OC(n2cc(F)c(=O)[nH]c2=O)CC1OC(=O)CCCCCCC (stereo not drawn),logD,[5],6.05
CS(=O)(=O)CCN(CCS(C)(=O)=O)c1cc(C(N)=O)c([N+](=O)[O-])cc1[N+](=O)[O-],logD,[6],-0.7
Cc1cccc(-c2cc3ccccc3c(N)n2)n1,logD,[4],3.18
CC(=O)OCC1OC(n2cc(F)c(=O)[nH]c2=O)CC1OC(C)=O (stereo not drawn),logD,[5],-0.34
Clc1cc(Cl)c(-c2ccccc2)cc1Cl,logP,[7],5.51
Clc1ccc(C2(Cn3cncn3)CC2)cc1,logP,[8],2.21
OCCCCn1nc2ccccc2n1,logD,[9],1.57
O=S(=O)(Nc1cc(Cl)c(Cl)cc1Cl)c1cc(Cl)cc(Cl)c1O,logP,[3],4.32
OCCCCn1nnc2ccccc21,logD,[9],1.03
CCCCC(=O)OC[C@H]1O[C@@H](n2cc(F)c(=O)[nH]c2=O)C[C@@H]1OC(=O)CCCC,logD,[5],2.72
Clc1c(Cl)c(Cl)c(-c2ccccc2)c(Cl)c1Cl,logP,[7],6.3
Clc1cc(Cl)c(-c2ccccc2)c(Cl)c1,logP,[7],5.47
CCCCCOC(=O)OC[C@@H]1O[C@H](n2ccc(N)nc2=O)CS1,logP,[10],1.2
OCCCCCn1nc2ccccc2n1,logD,[9],1.93
CCCCCCNCc1ccc(C)cc1,logP,,4.96
CCC1(CC)C(=O)NC(=O)N(C(C)C)C1=O,logP,[11],2.36
O=C(NCCN1CCOCC1)OCCCCCC1CCSS1 (stereo not drawn),logP,[12],2.9
S=c1ssc2c1CCCCCCCCCC2,logP,[2],5.8
Nc1nc(-c2ccccn2)cc2ccccc12,logD,[4],2.74
CC1(C)C2Cc3ssc(=S)c3C1C2 (stereo not drawn),logP,[2],3.52
OCCCCCCn1nnc2ccccc21,logD,[9],1.71
Cc1cccc2cc(-c3ccccn3)nc(N)c12,logD,[4],3.05
CCCCCCCNCc1ccc(C)cc1,logP,,5.12
CCC1(c2ccccc2)C(=O)NC(=O)N=C1OC(C)C (stereo not drawn),logP,[11],2.22
CCCOC(=O)OC[C@@H]1O[C@H](n2ccc(N)nc2=O)CS1,logP,[10],0.22
CCC1(c2ccccc2)C(=O)N=C(OC(C)C)NC1=O (stereo not drawn),logP,[11],1.79
CN[C@H](C)[C@@H](OC)c1ccccc1 (relative stereo),logD,[13],1.87
CCOC(=O)OC[C@@H]1O[C@H](n2ccc(N)nc2=O)CS1,logP,[10],-0.25
CC(C)(Cn1cncn1)c1ccc(F)cc1,logP,[8],1.74
CCCCCC(=O)OCC1OC(n2cc(F)c(=O)[nH]c2=O)CC1OC(=O)CCCCC (stereo not drawn),logD,[5],4.25
CC(C)OC(=O)OC[C@@H]1O[C@H](n2ccc(N)nc2=O)CS1,logP,[10],0.1
CS(=O)(=O)c1cc([N+](=O)[O-])c(C(N)=O)cc1N(CCBr)CCBr,logD,[6],1.18
Fc1ccc(C2(Cn3cncn3)CCC2)cc1,logP,[8],1.93
O=C(NNC(=O)c1ccc([N+](=O)[O-])cc1)c1ccc([N+](=O)[O-])cc1,logP,[1],2.07
Clc1ccc(C2(Cn3cncn3)CCC2)cc1,logP,[8],2.13
CS(=O)(=O)CCN(CCI)c1cc(C(N)=O)c([N+](=O)[O-])cc1[N+](=O)[O-],logD,[6],0.74
O=S(=O)(Nc1ccc(O)cc1)c1cc(Cl)cc(Cl)c1Cl,logP,[3],4.18
O=S(=O)(Nc1ccccc1Cl)c1c(O)c(Cl)cc(Cl)c1Cl,logP,[3],3.97
CCCCCOC(=O)NCCN1CCOCC1,logP,[12],2.8
CC1CN(CCNC(=O)OCCCCCC2CCSS2)CC(C)O1 (stereo not drawn),logP,[12],4.2
Cc1ccc(C(=O)NNC(=O)c2ccccc2)cc1,logP,[1],1.88
Clc1cccc(Cl)c1-c1ccccc1,logP,[7],4.93
O=C(CCCCC1CCSS1)NCCN1CCOCC1 (stereo not drawn),logP,[12],1.8
CCC1(CC)C(=O)N=C(OC(C)C)NC1=O,logP,[11],1.44
O=C(NN(C(=O)c1ccc([N+](=O)[O-])cc1)c1ccccc1)c1ccc([N+](=O)[O-])cc1,logP,[1],4.18
CS(=O)(=O)CCN(CCCl)c1cc(C(N)=O)c([N+](=O)[O-])cc1[N+](=O)[O-],logD,[6],0.42
